Measurements taken from publication PMC12274840 (The Journal of Biological Chemistry, 2025).
Where “and” joins values, the source holds several entries; their conditions need not be identical. Identical values can stand only once.

Tests used:
[1] = biological target: T1, BlaC I105R (Mycobacterium tuberculosis, UniProt P9WKD3, I117R); format: biochemical; settings: pH 6.4
[2] = biological target: T1, BlaC I105R; format: biochemical

`CC1(C)S[C@@H]2[C@H](NC(=O)[C@H](N)c3ccccc3)C(=O)N2[C@H]1C(=O)O` [ampicillin] showed a kcat [1] of 3.4 ± 0.1 s⁻¹.
`NC(=O)[C@@H]1CC[C@@H]2CN1C(=O)N2OS(=O)(=O)O` [avibactam] was tested, and the “in vitro sensitivity to inhibition compared with wild type” value [2] was “less sensitive”, the k2 [2] was 9.5 and 9.5 10^−2 s^−1 and the k-2 [2] was 0.1 and 0.1 10^−3 s^−1.
`CC1(C)S[C@@H]2[C@H](NC(=O)C(C(=O)O)c3ccccc3)C(=O)N2[C@H]1C(=O)O` (stereo partly drawn) [carbenicillin] showed a kcat [1] of 0.27 ± 0.01 s⁻¹.
In the case of `O=C(O)[C@H]1/C(=C/CO)O[C@@H]2CC(=O)N21` [clavulanic acid], the “in vitro sensitivity to inhibition compared with wild type” value [2] is reported as “less sensitive”, the k1 [2] is reported as 1 µM⁻¹ s⁻¹ and the k2 [2] is reported as 4.6 and 4.6 10^−2 s^−1. For the same molecule, the k3 [2] was 2 and 2 10^−3 s^−1.
`O=C(Cc1cccs1)N[C@@H]1C(=O)N2C(C(=O)O)=C(/C=C/c3ccc([N+](=O)[O-])cc3[N+](=O)[O-])CS[C@H]12` [nitrocefin] was tested, and the kcat [1] was 24 ± 2 s⁻¹, the ka [2] was 0.18 µM⁻¹ s⁻¹ and the kc [2] was 40 s⁻¹ and 57 s⁻¹.
